Source: the supplement of paper PMC10307832

Key:
Assay in all cases: relative viability (nuclei count vs DMSO), 5 days (fraction); higher = more cells survive
Alpelisib + Decitabine = compound: Cc1nc(NC(=O)N2CCC[C@H]2C(N)=O)sc1-c1ccnc(C(C)(C)C(F)(F)F)c1 [Alpelisib] + Nc1ncn([C@H]2C[C@H](O)[C@@H](CO)O2)c(=O)n1 [Decitabine] (partner 2 µM)
How it was run: (§1)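 Medians of duplicate plates are given as relative viability. That measure is the nuclei count in treated wells divided by the count in vehicle wells. Counts were taken on 4× images of lung cancer cell lines in 1536-well plates, 5 days after pin-tool dosing the day after seeding with one drug alone or a fixed anchor-drug dose plus five library-drug doses (not always all listed) in √10 steps.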

OSI-027 + Bortezomib = compound: COc1cccc2cc(-c3nc([C@H]4CC[C@H](C(=O)O)CC4)n4ncnc(N)c34)[nH]c12 [OSI-027] + CC(C)C[C@H](NC(=O)[C@H](Cc1ccccc1)NC(=O)c1cnccn1)B(O)O [Bortezomib] (partner 0.002 µM)
How it was run: as §1

Vemurafenib + Dasatinib = compound: CCCS(=O)(=O)Nc1ccc(F)c(C(=O)c2c[nH]c3ncc(-c4ccc(Cl)cc4)cc23)c1F [Vemurafenib] + Cc1nc(Nc2ncc(C(=O)Nc3c(C)cccc3Cl)s2)cc(N2CCN(CCO)CC2)n1 [Dasatinib] (partner 0.075 µM)
How it was run: as §1

OSI-027 + Olaparib = compound: COc1cccc2cc(-c3nc([C@H]4CC[C@H](C(=O)O)CC4)n4ncnc(N)c34)[nH]c12 [OSI-027] + O=C(c1cc(Cc2n[nH]c(=O)c3ccccc23)ccc1F)N1CCN(C(=O)C2CC2)CC1 [Olaparib] (partner 8 µM)
How it was run: as §1

Cell Line	relative viability (Alpelisib + Decitabine; first compound 0.04 µM)	relative viability (Alpelisib + Decitabine; first compound 0.1265 µM)	relative viability (Alpelisib + Decitabine; first compound 0.4 µM)	relative viability (Alpelisib + Decitabine; first compound 1.265 µM)	relative viability (Alpelisib + Decitabine; first compound 4 µM)	relative viability (OSI-027 + Bortezomib; first compound 0.01 µM)	relative viability (OSI-027 + Bortezomib; first compound 0.03162 µM)	relative viability (OSI-027 + Bortezomib; first compound 0.1 µM)	relative viability (OSI-027 + Bortezomib; first compound 0.3162 µM)	relative viability (OSI-027 + Bortezomib; first compound 1 µM)	relative viability (Vemurafenib + Dasatinib; first compound 0.03162 µM)	relative viability (Vemurafenib + Dasatinib; first compound 0.1 µM)	relative viability (Vemurafenib + Dasatinib; first compound 0.3162 µM)	relative viability (Vemurafenib + Dasatinib; first compound 1 µM)	relative viability (OSI-027 + Olaparib; first compound 0.01 µM)	relative viability (OSI-027 + Olaparib; first compound 0.03162 µM)	relative viability (OSI-027 + Olaparib; first compound 0.1 µM)	relative viability (OSI-027 + Olaparib; first compound 0.3162 µM)	relative viability (OSI-027 + Olaparib; first compound 1 µM)
201T	0.85	0.78	0.88	0.772	0.628	1.14	1.15	1.07	1.12	1.1	0.525	0.521	0.622	0.523	0.909	0.908	0.838	0.887	0.802
A549	0.197	0.294	0.322	0.25	0.229	–	–	–	–	–	–	–	–	–	0.465	0.258	0.305	0.282	0.0927
A-427	0.518	0.483	0.574	0.461	0.44	1.13	0.965	0.967	0.803	0.578	0.597	0.624	0.446	0.581	0.817	0.835	0.643	0.593	0.506
ABC-1	1.15	1	1.21	0.612	1.12	0.284	0.366	0.331	0.405	0.27	–	0.563	–	0.567	0.667	0.686	0.795	0.859	0.404
BEN	0.776	0.679	0.837	0.693	0.749	0.653	0.83	0.488	0.379	0.389	0.274	0.257	–	0.309	1.15	1.19	0.769	0.554	0.527
CAL-12T	–	–	–	–	–	0.814	1.02	0.713	0.754	0.729	0.42	0.266	0.454	0.374	0.751	0.749	0.777	0.53	0.335
COR-L23	0.423	0.427	0.438	0.333	0.355	1.16	0.923	1.07	1.13	0.298	0.423	0.503	0.443	0.482	0.377	0.335	0.208	0.401	0.279
COR-L 105	0.55	0.736	0.706	0.683	0.569	0.682	0.716	0.779	0.572	0.428	0.317	–	–	0.316	0.713	0.722	0.726	0.571	0.685
Calu-6	–	–	–	–	–	1.34	0.956	1	0.906	0.896	–	–	–	–	0.568	0.621	0.637	0.64	0.577
ChaGo-K-1	0.52	0.529	0.526	0.475	0.446	0.987	1.17	0.554	0.838	0.762	0.511	0.517	0.396	0.6	0.429	0.423	0.451	0.415	0.317
EBC-1	–	–	–	–	–	0.497	0.557	0.515	0.53	0.375	–	–	–	–	0.662	0.736	0.67	0.579	0.331
EKVX	0.313	0.17	0.389	0.312	0.283	1.03	0.942	1.11	0.972	0.649	0.51	–	0.661	0.515	0.659	0.935	0.88	0.832	0.516
EMC-BAC-2	0.924	–	0.965	0.72	0.747	1.07	1.08	0.988	0.872	0.568	0.175	0.28	0.209	0.337	0.487	0.489	0.468	0.402	0.29
EPLC-272H	0.337	0.374	0.388	0.297	0.284	0.871	0.978	0.764	0.849	0.688	0.299	0.25	0.338	0.41	0.714	0.495	0.661	0.386	0.298
H3255	0.632	0.603	0.65	0.448	0.467	0.825	0.761	0.619	0.545	0.534	0.36	–	0.446	0.371	0.595	0.555	0.588	0.569	0.409
HARA	0.387	0.556	0.514	0.377	0.432	1.12	1.1	1.15	0.979	0.67	0.272	0.215	0.195	0.201	0.771	0.499	0.841	0.616	0.352
HCC-15	0.642	0.531	0.622	0.504	0.383	1.07	0.988	1	1.01	0.71	0.551	0.67	–	0.726	0.799	0.745	0.729	0.683	0.397
HCC-44	0.891	0.97	1.02	0.921	0.889	0.929	1	0.874	0.838	0.413	–	–	–	–	1.06	1.01	1	1	0.716
HCC-78	0.705	0.67	0.657	0.562	0.533	0.611	0.428	0.454	0.344	0.35	0.359	0.329	0.593	0.37	0.769	0.699	0.723	0.558	0.397
HCC-366	0.322	0.318	0.327	0.231	0.194	1.18	1.2	1.03	1.07	0.733	0.576	0.643	0.265	0.564	0.331	0.386	0.417	0.386	0.219
HCC-827	0.33	0.346	0.347	0.302	0.254	0.973	1.07	1.06	1.12	1.05	0.386	–	0.399	0.348	0.669	0.58	0.648	0.599	0.326

Cell Line	relative viability (Alpelisib + Decitabine; first compound 0.04 µM)	relative viability (Alpelisib + Decitabine; first compound 0.1265 µM)	relative viability (Alpelisib + Decitabine; first compound 0.4 µM)	relative viability (Alpelisib + Decitabine; first compound 1.265 µM)	relative viability (Alpelisib + Decitabine; first compound 4 µM)	relative viability (OSI-027 + Bortezomib; first compound 0.01 µM)	relative viability (OSI-027 + Bortezomib; first compound 0.03162 µM)	relative viability (OSI-027 + Bortezomib; first compound 0.1 µM)	relative viability (OSI-027 + Bortezomib; first compound 0.3162 µM)	relative viability (OSI-027 + Bortezomib; first compound 1 µM)	relative viability (Vemurafenib + Dasatinib; first compound 0.03162 µM)	relative viability (Vemurafenib + Dasatinib; first compound 0.1 µM)	relative viability (Vemurafenib + Dasatinib; first compound 0.3162 µM)	relative viability (Vemurafenib + Dasatinib; first compound 1 µM)	relative viability (OSI-027 + Olaparib; first compound 0.01 µM)	relative viability (OSI-027 + Olaparib; first compound 0.03162 µM)	relative viability (OSI-027 + Olaparib; first compound 0.1 µM)	relative viability (OSI-027 + Olaparib; first compound 0.3162 µM)	relative viability (OSI-027 + Olaparib; first compound 1 µM)
HOP-62	0.259	0.22	0.216	0.234	0.283	0.679	0.726	0.377	0.65	0.609	0.535	0.549	0.292	0.66	0.605	0.68	0.456	0.594	0.167
IA-LM	–	–	–	–	–	0.736	0.765	0.438	0.21	0.113	–	–	–	–	0.898	0.776	0.733	0.485	0.212
LC-2-ad	0.823	0.767	0.83	0.735	0.768	1.03	0.984	1.05	1.09	0.662	0.592	0.669	–	0.559	0.774	0.721	0.836	0.87	0.737
LCLC-97TM1	0.232	0.222	0.213	0.191	0.177	0.271	0.554	0.369	0.154	0.193	0.76	0.853	1.05	0.685	0.59	0.438	0.325	0.281	0.347
LCLC-103H	0.688	0.717	0.775	0.571	0.465	1.24	1.16	1.13	0.928	1	0.45	0.505	0.317	0.388	0.731	0.753	0.749	0.702	0.817
LK-2	0.289	0.256	0.254	0.198	0.185	–	–	–	–	–	0.306	0.306	0.33	0.223	0.611	0.642	0.654	0.476	0.173
NCI-H358	0.194	0.195	0.205	0.178	0.169	–	–	–	–	–	0.142	0.116	0.22	0.203	0.708	0.546	0.579	0.572	0.422
NCI-H522	0.707	0.741	0.681	0.591	0.61	–	–	–	–	–	1.08	0.718	0.875	0.855	0.544	0.668	0.524	0.679	0.449
NCI-H1299	–	–	–	–	–	1.09	1.03	1.06	1.08	1.1	–	–	–	–	1.02	0.998	0.956	1.04	0.796
NCI-H1395	0.747	0.699	0.75	0.645	0.65	–	–	–	–	–	0.415	0.411	–	0.403	0.525	0.412	0.48	0.376	0.362
NCI-H1563	–	–	–	–	–	0.822	0.872	0.781	0.741	0.722	0.526	0.432	0.465	0.419	–	–	–	–	–
NCI-H1623	–	–	–	–	–	–	–	–	–	–	0.565	–	0.716	0.485	–	–	–	–	–
NCI-H1648	0.477	0.508	0.353	0.372	0.253	–	–	–	–	–	–	–	–	–	1.06	0.725	–	0.639	0.397
NCI-H1703	–	–	–	–	–	0.361	0.302	0.238	0.233	0.187	–	–	–	–	0.424	0.552	0.316	0.304	0.19
NCI-H1793	0.539	0.466	0.449	0.388	0.275	–	–	–	–	–	0.415	–	0.237	0.307	0.866	0.791	0.729	0.363	0.233
NCI-H1944	0.429	0.44	0.413	0.37	0.384	–	–	–	–	–	0.198	0.189	0.192	0.199	0.371	0.373	0.422	0.355	0.265
NCI-H2170	0.44	0.424	0.477	0.439	0.401	–	–	–	–	–	0.523	0.214	0.639	0.54	0.664	0.592	0.604	0.525	0.346
NCI-H2228	–	–	–	–	–	0.977	1.01	0.999	–	0.65	0.399	0.474	0.54	0.502	0.952	0.644	0.562	0.474	0.226
NCI-H2342	0.697	0.666	0.701	0.711	0.503	–	–	–	–	–	0.313	0.304	0.266	0.326	0.522	0.385	0.439	0.338	0.314
SK-MES-1	0.363	0.376	0.358	0.292	0.297	–	–	–	–	–	0.372	0.155	0.303	0.389	0.62	0.605	0.532	0.417	0.285
SW 900	0.425	–	0.411	0.505	0.379	–	–	–	–	–	0.827	0.61	0.538	0.505	0.953	0.819	0.931	0.823	0.519
